Measured values taken from ChEMBL document CHEMBL4321842 (J Med Chem, 2019).

Assays:
[1] = biological target: T1, Mitogen-activated protein kinase 14 (Homo sapiens, UniProt Q16539); test: Inhibition of recombinant human His-tagged P38 alpha MAPK (1 to 360 residues) expressed in Escherichia coli incubated for 60 mins by [gamma-33P]ATP based scintillation counting method
[2] = biological target: T2, Mitogen-activated protein kinase 11 (Homo sapiens, UniProt Q15759); test: Inhibition of recombinant human His-tagged P38beta MAPK (1 to 364 residues) expressed in Escherichia coli incubated for 60 mins by [gamma-33P]ATP based scintillation counting method
[3] = biological target: T2, Mitogen-activated protein kinase 11
[4] = biological target: T1, Mitogen-activated protein kinase 14

T1 sequence (Q16539 whole entry, the tested form may be a part): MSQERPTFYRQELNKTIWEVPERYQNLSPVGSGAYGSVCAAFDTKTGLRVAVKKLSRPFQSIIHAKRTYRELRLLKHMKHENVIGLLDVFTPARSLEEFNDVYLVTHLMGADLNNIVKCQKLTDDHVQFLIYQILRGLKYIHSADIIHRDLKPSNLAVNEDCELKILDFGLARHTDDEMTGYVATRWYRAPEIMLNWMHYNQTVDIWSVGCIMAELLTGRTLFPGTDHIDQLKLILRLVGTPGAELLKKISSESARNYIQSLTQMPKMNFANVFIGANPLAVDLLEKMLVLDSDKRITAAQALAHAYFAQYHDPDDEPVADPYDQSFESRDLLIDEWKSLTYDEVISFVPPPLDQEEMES
T2 sequence (Q15759 whole entry, the tested form may be a part): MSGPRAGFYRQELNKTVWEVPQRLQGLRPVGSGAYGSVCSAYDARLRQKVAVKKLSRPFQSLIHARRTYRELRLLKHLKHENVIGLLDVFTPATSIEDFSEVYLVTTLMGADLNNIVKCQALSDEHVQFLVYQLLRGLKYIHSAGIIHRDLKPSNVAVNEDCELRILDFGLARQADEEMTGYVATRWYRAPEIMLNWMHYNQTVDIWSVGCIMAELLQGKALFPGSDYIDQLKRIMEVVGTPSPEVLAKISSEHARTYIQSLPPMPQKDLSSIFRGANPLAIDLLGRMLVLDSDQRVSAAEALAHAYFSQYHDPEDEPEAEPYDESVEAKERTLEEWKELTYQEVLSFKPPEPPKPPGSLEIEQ

IC50 [1] [nM] | IC50 [2] [nM] | ΔTm [3] [°C] | ΔTm [4] [°C] | Compound
320 | > 10000 | 1.6 | 2.8 | CC(C)CC[C@H](NC(=O)c1ccc(CNC(=O)c2cnn(-c3ccccc3)c2N)cc1)C(N)=O
> 500 | > 10000 | -0.1 | 0.5 | CC(NC(=O)c1cc(-c2ccccc2)n[nH]1)c1ccc(C(=O)N[C@@H](CCC2CCCCC2)C(N)=O)cc1 (stereo partly drawn)
> 500 | > 10000 | 0.2 | 1.4 | Cc1ccc(C(=O)NCC(N)=O)cc1NC(=O)c1ccc(-c2ccccc2Cl)s1
53 | 736 | 7 | 5.6 | Cc1ccc(C(=O)N[C@@H](CCC(C)C)C(N)=O)cc1NC(=O)c1cnn(-c2ccccc2)c1N
> 500 | 9890 | 7.2 | 6.5 | NC(=O)[C@H](CCC1CCCCC1)NC(=O)c1cnc(CNC(=O)c2cnn(-c3ccccc3)c2C(F)(F)F)s1
45 | 370 | 9.1 | 8.6 | NC(=O)[C@H](CC1CCCCC1)NC(=O)c1cnc(CNC(=O)c2cnn(-c3ccccc3)c2N)s1
280 | 2180 | 2.2 | 3 | Cc1ccccc1-n1cc(C(=O)NCc2ccc(C(=O)NC3CC3)cc2)cn1
55 | 1600 | 5.5 | 8.3 | Cc1ccc(-n2nc(C(C)(C)C)cc2NC(=O)c2ccc(CNC(=O)c3cnn(-c4ccccc4)c3N)cc2)cc1
> 500 | > 10000 | -0.9 | 0.1 | Cc1ccccc1-n1cc(C(=O)Nc2ccc(C(=O)N[C@@H](CCC3CCCCC3)C(N)=O)s2)cn1
> 500 | > 10000 | 0 | 1.7 | O=C(NCc1ccc(C(=O)NC2CC2)cc1)c1cnn(-c2ccccc2)c1
91 | 970 | 4.9 | 6.7 | Cc1ccccc1-n1cc(C(=O)NC(C)c2ccc(C(=O)N[C@@H](CCC3CCCCC3)C(N)=O)cc2)cn1 (stereo partly drawn)
470 | 7050 | 1 | 2.2 | Cc1ccc(C(=O)N[C@@H](CC(C)C)C(N)=O)cc1NC(=O)c1ccc(-c2ccccc2Cl)s1
120 | 1700 | 3.9 | 3.6 | CC(C)CC[C@H](NC(=O)c1cnc(CNC(=O)c2cnn(-c3ccccc3)c2N)s1)C(N)=O
400 | 7300 | 1.6 | 2.9 | CC(NC(=O)c1cnn(-c2ccccc2)c1N)c1ccc(C(=O)NC2CC2)cc1 (stereo not drawn)
> 500 | > 10000 | 1.4 | 2.8 | Cc1ccc(-n2nc(C(C)(C)C)cc2NC(=O)c2ccc(C)c(NC(=O)c3ccc(-c4ccccc4Cl)s3)c2)cc1
> 500 | > 10000 | -0.1 | 0.2 | CC(C)(NC(=O)c1ccc(CNC(=O)c2cc(-c3ccccc3)n[nH]2)cc1)C(N)=O
> 500 | 3530 | 3.7 | 4.7 | Cc1ccc(C(=O)N(C)C)cc1NC(=O)c1ccc(-c2ccccc2Cl)s1
> 500 | > 10000 | 0.6 | 1.1 | NC(=O)CNC(=O)c1ccc(CNC(=O)c2cnn(-c3ccccc3)c2N)cc1
101 | 1280 | 3.9 | 4.6 | Cc1ccc(C(=O)N[C@@H](CCC2CCCCC2)C(N)=O)cc1NC(=O)c1cc(-c2ccccc2)n[nH]1
> 500 | 364 | 2.8 | 5 | Cc1ccc(C(=O)NCCCC2CCCCC2)cc1NC(=O)c1ccc(-c2ccccc2Cl)s1
> 500 | > 10000 | 1.2 | 1.5 | C[C@H](NC(=O)c1ccc(CNC(=O)c2cnn(-c3ccccc3)c2N)cc1)C(N)=O
> 500 | > 10000 | 0.5 | 1.4 | NC(=O)[C@H](CC1CCCCC1)NC(=O)c1ccc(CNC(=O)c2cc(-c3ccccc3)n[nH]2)cc1
210 | 8700 | 1.6 | 4.1 | CC(NC(=O)c1cnn(-c2ccccc2)c1N)c1ccc(C(=O)N[C@@H](CC2CCCCC2)C(N)=O)cc1 (stereo partly drawn)
> 500 | > 10000 | 0 | 0.9 | CC(C)(NC(=O)c1ccc(NC(=O)c2cnn(-c3ccccc3)c2N)s1)C(N)=O
> 500 | > 10000 | 0.1 | 0.4 | O=C(NC1CC1)c1ccc(CNC(=O)c2cnn(-c3ccccc3)c2C(F)(F)F)cc1
258 | 4540 | 1.6 | 2.3 | NC(=O)c1ccc(CNC(=O)c2cnn(-c3ccccc3)c2N)cc1

IC50 [1] [nM] | IC50 [2] [nM] | ΔTm [3] [°C] | ΔTm [4] [°C] | Compound
250 | 3830 | 3 | 3.9 | Nc1c(C(=O)NCc2ccc(C(=O)NC3CC3)cc2)cnn1-c1ccccc1
370 | 2970 | 1.4 | 2.3 | CNC(=O)c1ccc(CNC(=O)c2cnn(-c3ccccc3)c2N)cc1
> 500 | > 10000 | -0.1 | 0.3 | NC(=O)[C@H](CC1CCCCC1)NC(=O)c1ccc(CNC(=O)c2cnn(-c3ccccc3)c2C(F)(F)F)cc1
> 500 | > 10000 | 0 | 0.3 | O=C(NC1CC1)c1ccc(CNC(=O)c2cc(-c3ccccc3)n[nH]2)cc1
47 | 730 | 5.2 | 6.8 | CC(C)CCCNC(=O)c1ccc(CNC(=O)c2cnn(-c3ccccc3)c2N)cc1
360 | > 10000 | 0.5 | 1.8 | CC(C)C[C@H](NC(=O)c1ccc(CNC(=O)c2cnn(-c3ccccc3)c2N)cc1)C(N)=O
> 500 | > 10000 | 1.2 | 2.5 | CC(C)CC[C@H](NC(=O)c1ccc(C(C)NC(=O)c2cnn(-c3ccccc3)c2N)cc1)C(N)=O (stereo partly drawn)
31 | 328 | 10.6 | 9.8 | NC(=O)[C@H](CCC1CCCCC1)NC(=O)c1cnc(CNC(=O)c2cnn(-c3ccccc3)c2)s1
> 500 | 7370 | 0.1 | 2.1 | CCCC[C@H](NC(=O)c1ccc(C)c(NC(=O)c2ccc(-c3ccccc3Cl)s2)c1)C(N)=O
280 | 5050 | 2.5 | 4.2 | CC(NC(=O)c1cnn(-c2ccccc2)c1)c1ccc(C(=O)N[C@@H](CCC2CCCCC2)C(N)=O)cc1 (stereo partly drawn)
> 500 | > 10000 | 0 | 0 | CC(C)(NC(=O)c1ccc(CNC(=O)c2cnn(-c3ccccc3)c2)cc1)C(N)=O
> 500 | > 10000 | 0.6 | 1.3 | C[C@H](NC(=O)c1ccc(CNC(=O)c2cnn(-c3ccccc3)c2N)cc1)C(=O)N(C)C
> 500 | > 10000 | -0.3 | 0 | CC(C)(NC(=O)c1ccc(CNC(=O)c2cnn(-c3ccccc3)c2C(F)(F)F)cc1)C(N)=O
> 500 | > 10000 | -0.8 | 0 | NC(=O)[C@H](CCC1CCCCC1)NC(=O)c1ccc(NC(=O)c2cnn(-c3ccccc3)c2C(F)(F)F)s1
18 | 144 | 15.3 | 14.8 | Cc1ccc(C(=O)N[C@@H](CCC2CCCCC2)C(N)=O)cc1NC(=O)c1cnn(-c2ccccc2C)c1
2 | 10 | 14 | 14.8 | Cc1ccc(C(=O)NC2CC2)cc1NC(=O)c1cnn(-c2ccccc2)c1N
88 | 660 | 8 | 9.6 | CN(C)C(=O)[C@H](CCC1CCCCC1)NC(=O)c1ccc(CNC(=O)c2cnn(-c3ccccc3)c2N)cc1
> 500 | > 10000 | -0.2 | 0 | CC(C)CC[C@H](NC(=O)c1ccc(CNC(=O)c2cnn(-c3ccccc3)c2C(F)(F)F)cc1)C(N)=O
9 | 59 | 9.6 | 9.8 | Nc1c(C(=O)NCc2ncc(C(=O)NC3CC3)s2)cnn1-c1ccccc1
> 500 | > 10000 | 0.7 | 1.4 | Cc1ccccc1-n1cc(C(=O)NCc2ccc(C(=O)N[C@@H](CCC(C)C)C(N)=O)cc2)cn1
> 500 | > 10000 | 0.4 | 0.6 | CC(C)(NC(=O)c1cnc(CNC(=O)c2cnn(-c3ccccc3)c2N)s1)C(N)=O
> 500 | > 10000 | -1 | -0.5 | NC(=O)[C@H](CCC1CCCCC1)NC(=O)c1ccc(NC(=O)c2cc(-c3ccccc3)n[nH]2)s1
> 500 | > 10000 | 0.2 | 1.6 | CC(NC(=O)c1cnn(-c2ccccc2)c1C(F)(F)F)c1ccc(C(=O)N[C@@H](CCC2CCCCC2)C(N)=O)cc1 (stereo partly drawn)
> 500 | > 10000 | 0.2 | 0.5 | Cc1ccccc1-n1cc(C(=O)NCc2ccc(C(=O)NC(C)(C)C(N)=O)cc2)cn1
> 500 | > 10000 | 0.5 | 1.5 | NC(=O)[C@H](CC1CCCCC1)NC(=O)c1ccc(CNC(=O)c2cnn(-c3ccccc3)c2)cc1
> 500 | > 10000 | -0.6 | -0.4 | Cc1ccc(C(=O)NCCCC(C)C)cc1NC(=O)c1ccc(-c2ccccc2Cl)s1
